# Data as given in ChEMBL document CHEMBL5375972, “Discovery of Novel 2,3-Dihydro-1H-indene-5-sulfonamide NLRP3 Inflammasome Inhibitors Targeting Colon as a Potential Therapy for Colitis” (J Med Chem, 2023).
# Active and inactive are the calls of the source. No cut-off for these calls is given here.
# What was measured:
# [1] = tested on: Mus musculus; experiment: Anti-inflammatory activity in DSS-induced ulcerative colitis C57BL/6 mouse model assessed as increase in colon length at 10 mg/kg,ip administrated for 9 days; assay type: functional, organism-based; settings: time 9.0 day
# [2] = AUC (0-infinity) in Sprague-Dawley rat at 1 mg/kg,iv measured after 24 hrs by HPLC-MS/MS analysis; assay type: ADME, organism-based; parameters: time 24 hrs, dose 1 mg/kg, route iv; settings: in vivo
# [3] = Acute toxicity in Kunming mouse model assessed as lethal dose at IG administration for 7 days; settings: in vivo, po, time 7 day
# [4] = tested on: Mus musculus; experiment: Anti-inflammatory activity in DSS-induced ulcerative colitis C57BL/6 mouse model assessed as decrease in IL-1beta expression in colon at 10 mg/kg,ip administrated for 9 days by immunohistochemistry analysis; assay type: functional, organism-based; settings: time 9.0 day
# [5] = Drug distribution in Sprague-Dawley rat brain at 1 mg/kg,iv measured for 0.5 to 2 hrs by HPLC-MS/MS analysis; assay type: ADME, organism-based; settings: in vivo, time 0.5-2 hrs
# [6] = tested on: J774.A1; experiment: Inhibition of NF-kappaB pathway in mouse J774.A1 cells assessed as inhibition of LPS-induced IL-6 secretion at 0.1 to 30 uM pretreated for 1hr followed by LPS addition for 6 hrs by ELISA; assay type: cell-based; settings: dose 0.1-30 µM, time 7.0 hrs
# [7] = Drug distribution in Sprague-Dawley rat spleen at 1 mg/kg,iv measured for 0.5 to 2 hrs by HPLC-MS/MS analysis; assay type: ADME, organism-based; settings: in vivo, time 0.5-2 hrs
# [8] = Subacute toxicity in C57BL/6 mouse assessed as colon histological changes at 10 mg/kg,ip administrated for 14 days; assay type: organism-based; settings: in vivo, 336 h, time 14 day
# [9] = Drug distribution in Sprague-Dawley rat plasma at 1 mg/kg,iv measured for 0.5 to 2 hrs by HPLC-MS/MS analysis; assay type: ADME, organism-based; settings: in vivo, time 0.5-2 hrs
# [10] = Subacute toxicity in C57BL/6 mouse assessed as change in liver weight at 10 mg/kg,ip administrated for 14 days; assay type: organism-based; settings: in vivo, 336 h, time 14 day
# [11] = tested on: Mus musculus; experiment: Anti-inflammatory activity in DSS-induced ulcerative colitis C57BL/6 mouse model assessed as reduction in crypt necrosis in colon at 10 mg/kg,ip administrated for 9 days by Hematoxylin-eosin staining based microscopic analysis; assay type: functional, organism-based; settings: time 9.0 day
# [12] = Subacute toxicity in C57BL/6 mouse assessed as spleen histological changes at 100 mg/kg,ip administrated for 14 days; assay type: organism-based; settings: in vivo, 336 h, time 14 day
# [13] = tested on: Mus musculus; experiment: Anti-inflammatory activity in DSS-induced ulcerative colitis C57BL/6 mouse model assessed as decrease in NLRP3 expression in colon at 10 mg/kg,ip administrated for 9 days by immunohistochemistry analysis; assay type: functional, organism-based; settings: time 9.0 day
# [14] = Acute toxicity in Kunming mouse model assessed as anorexia at 2000 mg/kg,IG administration for 7 days; assay type: organism-based; settings: in vivo, po, 168 h, time 7 day
# [15] = Acute toxicity in Kunming mouse model assessed as anorexia at 1000 mg/kg,IG administration for 7 days; assay type: organism-based; settings: in vivo, po, 168 h, time 7 day
# [16] = tested on: Mus musculus; experiment: Anti-inflammatory activity in DSS-induced ulcerative colitis C57BL/6 mouse model assessed as reduction in disease activity index (DAI) score at 10 mg/kg,ip administrated for 9 days; assay type: functional, organism-based; settings: time 9.0 day
# [17] = Half life in Sprague-Dawley rat at 1 mg/kg,iv measured after 24 hrs by HPLC-MS/MS analysis; assay type: ADME, organism-based; settings: in vivo
# [18] = Acute toxicity in Kunming mouse model assessed as ruffled fur at 1000 mg/kg,IG administration for 7 days; assay type: organism-based; settings: in vivo, po, 168 h, time 7 day
# [19] = tested on: J774.A1; experiment: Inhibition of NF-kappaB pathway in mouse J774.A1 cells assessed as inhibition of LPS-induced TNF-alpha secretion at 0.1 to 30 uM pretreated for 1hr followed by LPS addition for 6 hrs by ELISA; assay type: cell-based; settings: dose 0.1-30 µM, time 7.0 hrs
# [20] = Subacute toxicity in C57BL/6 mouse assessed as change in kidney weight at 100 mg/kg,ip administrated for 14 days; assay type: organism-based; settings: in vivo, 336 h, time 14 day
# [21] = molecular target: NACHT, LRR and PYD domains-containing protein 3 (Homo sapiens, UniProt Q96P20); experiment: Binding affinity to human NLRP3 assessed as equilibrium dissociation constant by surface plasmon resonance assay
# [22] = Acute toxicity in Kunming mouse model assessed as lethargy at 2000 mg/kg,IG administration for 7 days; assay type: organism-based; settings: in vivo, po, 168 h, time 7 day
# [23] = Subacute toxicity in C57BL/6 mouse assessed as change in heart weight at 100 mg/kg,ip administrated for 14 days; assay type: organism-based; settings: in vivo, 336 h, time 14 day
# [24] = Subacute toxicity in C57BL/6 mouse assessed as liver histological changes at 10 mg/kg,ip administrated for 14 days; assay type: organism-based; settings: in vivo, 336 h, time 14 day
# [25] = tested on: Mus musculus; experiment: Anti-inflammatory activity in DSS-induced ulcerative colitis C57BL/6 mouse model assessed as decrease in IL-18 expression in colon at 10 mg/kg,ip administrated for 9 days by immunohistochemistry analysis; assay type: functional, organism-based; settings: time 9.0 day
# [26] = Subacute toxicity in C57BL/6 mouse assessed as change in kidney weight at 10 mg/kg,ip administrated for 14 days; assay type: organism-based; settings: in vivo, 336 h, time 14 day
# [27] = tested on: Mus musculus; experiment: Anti-inflammatory activity in DSS-induced ulcerative colitis C57BL/6 mouse model assessed as decrease in ASC expression in colon at 10 mg/kg,ip administrated for 9 days by immunohistochemistry analysis; assay type: functional, organism-based; settings: time 9.0 day
# [28] = Acute toxicity in Kunming mouse model assessed as ruffled fur at 2000 mg/kg,IG administration for 7 days; assay type: organism-based; settings: in vivo, po, 168 h, time 7 day
# [29] = Subacute toxicity in C57BL/6 mouse assessed as lung histological changes at 10 mg/kg,ip administrated for 14 days; assay type: organism-based; settings: in vivo, 336 h, time 14 day
# [30] = molecular target: NLR family CARD domain-containing protein 4 (Mus musculus) (UniProt Q3UP24); experiment: Inhibition of NLRC4 inflammasome in mouse J774.A1 cells assessed as inhibition of LPS/flagellin-induced IL-1 beta secretion at 10 uM pretreated with LPS and compound for 1 hr followed by flagellin addition measured after 6 hrs by ELISA; assay type: cell-based; settings: time 7.0 hrs
# [31] = tested on: Mus musculus; experiment: Anti-inflammatory activity in DSS-induced ulcerative colitis C57BL/6 mouse model assessed as reduction in mucosal damage in colon at 10 mg/kg,ip administrated for 9 days by Hematoxylin-eosin staining based microscopic analysis; assay type: functional, organism-based; settings: time 9.0 day
# [32] = Subacute toxicity in C57BL/6 mouse assessed as change in spleen weight at 10 mg/kg,ip administrated for 14 days; assay type: organism-based; settings: in vivo, 336 h, time 14 day
# [33] = tested on: Mus musculus; experiment: Anti-inflammatory activity in DSS-induced ulcerative colitis C57BL/6 mouse model assessed as decrease in NLRP3 protein expression in colon at 10 mg/kg,ip administrated for 9 days by Western blotting analysis; assay type: functional, organism-based; settings: time 9.0 day
# [34] = Drug distribution in Sprague-Dawley rat small intestine at 1 mg/kg,iv measured for 0.5 to 2 hrs by HPLC-MS/MS analysis; assay type: ADME, organism-based; settings: in vivo, time 0.5-2 hrs
# [35] = Drug distribution in Sprague-Dawley rat lung at 1 mg/kg,iv measured for 0.5 to 2 hrs by HPLC-MS/MS analysis; assay type: ADME, organism-based; settings: in vivo, time 0.5-2 hrs
# [36] = Acute toxicity in Kunming mouse model assessed as change in body weight at 1000 mg/kg,IG administration for 7 days; assay type: organism-based; settings: in vivo, po, 168 h, time 7 day
# [37] = Subacute toxicity in C57BL/6 mouse assessed as change in lung weight at 100 mg/kg,ip administrated for 14 days; assay type: organism-based; settings: in vivo, 336 h, time 14 day
# [38] = Cytotoxicity against human HL7702 cells incubated for 48 hrs by resazurin reagent based assay; assay type: toxicity, cell-based; settings: HL7702 (L02) cells
# [39] = Stability of compound in human plasma measured for 48 hrs; assay type: ADME, cell-free
# [40] = Subacute toxicity in C57BL/6 mouse assessed as body weight gain at 100 mg/kg,ip administrated for 14 days; assay type: organism-based; settings: in vivo, 336 h, time 14 day
# NACHT, LRR and PYD domains-containing protein 3, sequence (Q96P20 whole entry, the tested form may be a part): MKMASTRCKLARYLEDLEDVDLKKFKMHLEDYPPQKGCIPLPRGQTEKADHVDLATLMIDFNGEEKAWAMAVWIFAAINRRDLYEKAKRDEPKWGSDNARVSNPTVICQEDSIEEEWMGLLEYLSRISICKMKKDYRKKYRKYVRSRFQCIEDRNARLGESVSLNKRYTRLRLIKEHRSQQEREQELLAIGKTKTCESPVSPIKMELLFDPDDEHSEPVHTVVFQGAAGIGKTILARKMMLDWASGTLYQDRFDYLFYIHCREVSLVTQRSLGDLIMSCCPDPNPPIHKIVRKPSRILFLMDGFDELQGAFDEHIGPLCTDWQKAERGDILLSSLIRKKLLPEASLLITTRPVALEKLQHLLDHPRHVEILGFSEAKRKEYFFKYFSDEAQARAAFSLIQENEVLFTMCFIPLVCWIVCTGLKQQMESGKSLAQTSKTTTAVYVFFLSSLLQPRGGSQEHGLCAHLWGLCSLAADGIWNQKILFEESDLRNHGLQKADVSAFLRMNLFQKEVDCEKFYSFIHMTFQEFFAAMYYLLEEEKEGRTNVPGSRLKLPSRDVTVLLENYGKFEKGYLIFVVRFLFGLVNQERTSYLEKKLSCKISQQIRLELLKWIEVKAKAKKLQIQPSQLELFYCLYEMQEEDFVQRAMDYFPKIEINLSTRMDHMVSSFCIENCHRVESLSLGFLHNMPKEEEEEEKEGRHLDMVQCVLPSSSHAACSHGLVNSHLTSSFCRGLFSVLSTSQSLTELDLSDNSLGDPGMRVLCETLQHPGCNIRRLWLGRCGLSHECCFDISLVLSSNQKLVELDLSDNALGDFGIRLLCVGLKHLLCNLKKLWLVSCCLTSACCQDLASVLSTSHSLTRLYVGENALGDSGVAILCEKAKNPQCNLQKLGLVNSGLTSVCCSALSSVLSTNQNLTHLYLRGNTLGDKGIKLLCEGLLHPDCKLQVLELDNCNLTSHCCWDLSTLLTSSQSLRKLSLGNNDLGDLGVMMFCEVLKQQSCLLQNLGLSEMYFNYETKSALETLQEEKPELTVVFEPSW
# NLR family CARD domain-containing protein 4 (Mus musculus), sequence (Q3UP24 whole entry, the tested form may be a part): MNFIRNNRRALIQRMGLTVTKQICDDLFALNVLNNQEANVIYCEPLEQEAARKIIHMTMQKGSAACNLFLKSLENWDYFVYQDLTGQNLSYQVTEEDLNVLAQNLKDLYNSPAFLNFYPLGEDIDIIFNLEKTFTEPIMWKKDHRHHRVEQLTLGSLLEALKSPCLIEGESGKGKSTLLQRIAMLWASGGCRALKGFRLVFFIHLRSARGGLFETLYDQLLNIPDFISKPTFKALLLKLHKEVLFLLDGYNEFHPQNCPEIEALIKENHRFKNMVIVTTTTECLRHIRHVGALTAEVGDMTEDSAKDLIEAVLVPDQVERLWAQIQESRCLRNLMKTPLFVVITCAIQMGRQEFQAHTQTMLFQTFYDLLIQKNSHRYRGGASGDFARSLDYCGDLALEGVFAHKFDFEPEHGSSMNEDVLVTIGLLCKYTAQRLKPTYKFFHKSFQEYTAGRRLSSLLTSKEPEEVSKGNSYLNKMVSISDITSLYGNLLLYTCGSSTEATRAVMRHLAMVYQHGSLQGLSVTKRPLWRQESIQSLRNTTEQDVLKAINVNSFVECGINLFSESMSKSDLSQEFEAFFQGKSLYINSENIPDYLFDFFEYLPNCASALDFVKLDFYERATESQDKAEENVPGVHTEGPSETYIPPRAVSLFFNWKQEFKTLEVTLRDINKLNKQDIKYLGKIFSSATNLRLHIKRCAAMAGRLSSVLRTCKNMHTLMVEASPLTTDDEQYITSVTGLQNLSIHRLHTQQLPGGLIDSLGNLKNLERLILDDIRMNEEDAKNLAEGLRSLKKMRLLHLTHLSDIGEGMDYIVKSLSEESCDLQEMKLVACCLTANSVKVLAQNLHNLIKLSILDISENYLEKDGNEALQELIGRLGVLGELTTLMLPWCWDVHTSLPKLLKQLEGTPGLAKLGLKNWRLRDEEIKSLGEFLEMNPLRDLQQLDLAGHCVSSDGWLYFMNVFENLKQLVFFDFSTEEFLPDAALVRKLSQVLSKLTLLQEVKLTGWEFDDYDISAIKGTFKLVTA
compound,measurement,setting,value
CCCNS(=O)(=O)c1ccc2c(c1)CC(N(Cc1cc(Cl)ccc1OCCOC)C(=O)c1cc3ccccc3o1)C2 (racemic),Activity,[1],Active
same,AUC(0-inf),[2],213 ng·h/mL
same,LD50 at 168 h,[3],2000 mg/kg
same,Activity,[4],Active
same,Drug uptake,[5],Active
same,inhibition,[6],inactive
same,Drug uptake,[7],Active
same,Activity,[8],Non-Toxic
same,Cp,[9],2094.04 ng/g
same,Activity,[10],Non-Toxic
same,Activity,[11],Active
same,Activity,[12],Non-Toxic
same,Activity,[13],Active
same,Activity,[14],Non-Toxic
same,Activity,[15],Non-Toxic
same,Activity,[16],Active
same,half-life,[17],1.5 h
same,Activity,[18],Non-Toxic
same,inhibition,[19],inactive
same,Activity,[20],Non-Toxic
same,Kd,[21],0.103 µM
same,Activity,[22],Non-Toxic
same,Activity,[23],Non-Toxic
same,Activity,[24],Non-Toxic
same,Activity,[25],Active
same,Activity,[26],Non-Toxic
same,Activity,[27],Active
same,Activity,[28],Non-Toxic
same,Activity,[29],Non-Toxic
same,inhibition,[30],inactive
same,Activity,[31],Active
same,Activity,[32],Non-Toxic
same,Activity,[33],Active
same,Drug uptake,[34],Active
same,Drug uptake,[35],Active
same,Activity,[36],Non-Toxic
same,Activity,[37],Non-Toxic
same,CC50 at 48 h,[38],> 1000 µM
same,Stability,[39],Stable
same,Activity,[40],Toxic
